Measurements reported in patent US20230365959A1, “METHOD FOR IMPROVING THE STABILITY OF A COMPOSITION COMPRISING A FLAVIN-DEPENDENT LACTATE DEHYDROGENASE” (KIKKOMAN CORPORATION, priority 2020, published 2023).

Key:
Assay type in all cases: biochemical
[1] = test system: lactate dehydrogenase from Pichia kudriavzevii (PkLDH); test: Chronoamperometry with printed electrode to which PkLDH plus stabilizer was applied and dried (2 mM mPMS/PBS); details: added compound 50 mM, LDH 1 U dried at 40°C for 60 minutes, +200 mV
Experimental: An enzyme electrode was prepared using the purified PkLDH preparation obtained above and chronoamperometry was carried out. Each of the compounds was added to an enzyme solution in advance and tested whether or not a stabilizing effect of the enzyme during a drying step was exerted. LDH (1 U) solutions comprising compounds in a concentration (0.2% (w/v), 2% (w/v) and 50 mM, respectively) as described in Table 8 were each applied to a screen-printed carbon electrode C110 (manufactured by Metrohm-Dropsens) in an amount of 4 μL and dried at 40° C. for 60 minutes. The same procedure was repeated using an LDH solution without adding any one of the compounds. Each of the electrodes prepared was connected to ALS electrochemical analyzer 814D (manufactured by BAS) using a dedicated connector (DRP-CAC, manufactured by Drop Sense). Subsequently, 100 μL of a 2 mM mPMS/PBS solution was added dropwise to dissolve the dried LDH. The applied voltage was +200 mV (vs Ag/Ag+). An L-sodium lactate solution was added and a response current value 5 seconds after initiation of measurement was recorded. […] Then, an L-sodium lactate solution was added such that the final concentration thereof would be 2 to 10 mM, and a response current value 5 seconds after initiation of measurement was recorded.

[2] = test system: lactate dehydrogenase from Ogataea parapolymorpha (OgLDH); test: Thermal stability of OgLDH (residual activity ratio after heat treatment); details: OgLDH 2 U/mL; compound 300 mM; potassium phosphate buffer pH 7.5; 50°C for 15 minutes
Experimental: (§1) The thermal stability of LDH was evaluated by heating LDH at a given temperature for a given time and comparing the activities before and after heating. […] Further, LDH activity of an LDH solution allowed to stand still on ice without any heat treatment was measured. Based on the activity of this case without any heat treatment taken as 100, the activities of LDH solutions after heat treatment were calculated to determine the residual activity ratio (%). More specifically, the residual activity ratio (%) can be obtained by measuring LDH activity value (a) of a solution before heat treatment or before long-term storage, and LDH activity value (b) of a solution after heat treatment or after long-term storage, and then, calculating ((b)/(a)×100).
(§2) The activity of LDH was determined in accordance with the following procedure. […] Subsequently, a 30 mM PMS solution (50 μL) and an enzyme sample solution (50 μL) were added to the mixture to initiate a reaction. Absorbance at 520 nm was measured at the time of initiation of the reaction and over time and, the degree of reduction (ΔA520) in absorbance per minute as the enzymatic reaction progresses was obtained and LDH activity was calculated in accordance with the following Mathematical formula 2. Here, LDH activity is expressed by an enzyme (LDH) unit, and 1U is defined as the amount of the enzyme that can reduce 1 μmol DCIP per minute at 37° C. in the presence of 10 mM L-lactate.
Stability evaluation tests were conducted to check the improvement effect of malic acid on the stability of various LDHs. […] Each of these diluted enzyme solutions (a mixture of an enzyme and L-malic acid, LDH concentration: 2 U/mL, L-malic acid concentration: 300 mM) was heated in accordance with the thermal-stability evaluation method described in Section 4. More specifically, PkLDH was treated at 55° C., whereas, CaLDH and OgLDH were treated at 50° C. for 15 minutes and then the residual activity ratio (%) was calculated, based on the activity before heating taken as 100. As a comparative example, a sample without adding any L-malic acid in the enzyme diluent was subjected to the same experiment, and the ratio of residual activity in both cases were compared.
(§3) Using the purified OgLDH preparation obtained above, the ratios of remaining activities (%) in the presence and absence of a LDH stabilizer were compared in accordance with the LDH thermal stability evaluation method described in Section 4. In this manner, a stabilizer was searched.
The pH of the LDH solution was adjusted to be 7.5 after each of the compounds was added. Heat treatment was carried out at 50° C. for 15 minutes.

[3] = biological target: T1, lactate dehydrogenase from Saccharomyces cereviciae (ScLDH) (Saccharomyces cerevisiae, UniProt P00175); test: Thermal stability of ScLDH (supernatant of crushed bacterial cells); details: ScLDH 2 U/mL; compound 300 mM; potassium phosphate buffer pH 7.5; 40°C for 15 minutes
T1 construct: made in house; host or cells: Escherichia coli BL21 (pKK223-3-ScLDH); unpurified supernatant of crushed cells
T1 sequence (P00175 86-591): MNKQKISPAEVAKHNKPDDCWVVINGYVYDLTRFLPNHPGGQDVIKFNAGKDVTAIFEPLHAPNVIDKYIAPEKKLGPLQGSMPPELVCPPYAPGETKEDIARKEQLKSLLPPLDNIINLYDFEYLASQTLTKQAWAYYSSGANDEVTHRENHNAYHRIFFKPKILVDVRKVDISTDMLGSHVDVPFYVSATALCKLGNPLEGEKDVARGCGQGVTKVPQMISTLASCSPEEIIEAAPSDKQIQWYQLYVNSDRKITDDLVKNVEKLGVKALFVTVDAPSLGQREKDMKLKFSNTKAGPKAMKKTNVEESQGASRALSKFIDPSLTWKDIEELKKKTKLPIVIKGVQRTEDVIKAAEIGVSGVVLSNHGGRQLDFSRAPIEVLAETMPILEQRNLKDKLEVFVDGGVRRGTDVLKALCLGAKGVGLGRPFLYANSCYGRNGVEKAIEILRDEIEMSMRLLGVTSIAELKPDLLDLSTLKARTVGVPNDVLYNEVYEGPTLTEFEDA
Experimental: as §1, §2
as §3, with “supernatant of a solution comprising crushed ScLDH bacterial cells” for “purified OgLDH preparation”
The pH of the LDH solution was adjusted to be 7.5 after each of the compounds was added. Heat treatment was carried out at 40° C. for 15 minutes.

[4] = test system: lactate dehydrogenase from Pichia kudriavzevii (PkLDH); test: Thermal stability of PkLDH in 150 mM HEPES buffer; details: PkLDH 2 U/mL; 150 mM HEPES buffer pH 7.5; added compound 350 mM; 55°C for 15 minutes
Experimental: as §1
as §2, with “Here, LDH activity is expressed by an enzyme (LDH) unit, and 1U is defined as the amount of the enzyme that can reduce 1 μmol DCIP per minute at 37° C. in the presence of 10 mM L-lactate.” left out

O=C([O-])CC(=O)[O-].[Na+].[Na+] [disodium malonate]
Current value 5 seconds later (μA), 0 mM lactate ([1]; 0 mM lactate): 0.21 μA | Current value 5 seconds later (μA), 2 mM lactate ([1]; 2 mM lactate): 61.8 μA | LDH stability improving effect [2]: 96% | stability improving effect on ScLDH [3]: 26% | Residual activity ratio (%) [4]: 101%
